Square brackets hold non-standard residues; d marks the D form. Peptide text beside a SMILES is read from it. * marks the point of attachment. Desaminotyrosyl = O=C(CCc1ccc(O)cc1)*; hArg = N=C(N)NCCCC[C@H](N)C(=O)O; Agmatine = N=C(N)NCCCCN*; Nle = CCCC[C@H](N)C(=O)O; Orn = NCCC[C@H](N)C(=O)O; Abu = CC[C@H](N)C(=O)O; Aoc = NCCCCCCCC(=O)O

In the assay the target is T1, GHRH receptor (Homo sapiens, UniProt Q02643).
T1 construct: Normal human pituitaries were purchased from the National Hormone and Peptide Program; tissue National Hormone and Peptide Program (A. F. Parlow); host or cells: normal human pituitary, membrane fraction
T1 sequence (Q02643 23-423): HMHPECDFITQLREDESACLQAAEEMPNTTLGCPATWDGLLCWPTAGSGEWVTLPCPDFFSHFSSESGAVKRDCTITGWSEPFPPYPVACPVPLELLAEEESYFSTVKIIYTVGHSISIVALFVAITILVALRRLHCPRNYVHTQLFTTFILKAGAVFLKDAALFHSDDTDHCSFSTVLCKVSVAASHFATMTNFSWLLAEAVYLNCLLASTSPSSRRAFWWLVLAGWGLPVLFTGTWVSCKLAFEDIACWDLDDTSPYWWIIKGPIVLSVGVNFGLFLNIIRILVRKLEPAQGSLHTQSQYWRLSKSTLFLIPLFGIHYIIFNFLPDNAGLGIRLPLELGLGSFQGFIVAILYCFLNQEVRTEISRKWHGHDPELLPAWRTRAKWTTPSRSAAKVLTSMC
As to the kind of experiment: GHRH receptor binding, [His1,125I-Tyr10,Nle27]hGHRH(1-32)NH2 ligand competition, human pituitary membrane homogenates (Table 6). As to conditions: [His1,125I-Tyr10,Nle27]hGHRH(1-32)NH2, human pituitary membranes. How it is done: Receptor binding assay Ligand competition assay with ^125I-labeled [His^1, Nle^27]hGH-RH(1-32)-NH2 was used to determine the binding affinities of the novel hGH-RH agonists to membrane receptors of rat anterior pituitary cells. The methods used have been described in detail (Halmos G, et al. Receptor 3: 87-97, 1993), here by incorporated by reference. Briefly, radioidonated [His^1, Nle^27]hGH-RH(1-32)-NH2 is prepared by the chloramines-T method. […] IC50 is the dose of the tested peptides causing 50% inhibition of specific binding to receptors.
Preparation of human pituitary membrane fraction and receptor binding of GHRH agonists were performed as previously described, by using a sensitive in vitro ligand competition assay based on binding of ^125I-labeled [His^1, Nle^27]hGHRH(1-32)NH2 to human pituitary membrane homogenates. Normal human pituitaries were purchased from the National Hormone and Peptide Program (A. F. Parlow, Los Angeles, County Harbor—UCLA Medical Center, Torrance, Calif.).
The term IC50 denotes the point on the concentration scale where inhibition reaches its midpoint. A lower IC50 goes with greater potency. Compound `CCCC[C@H](NC(=O)[C@@H](NC(=O)[C@H](CC(=O)O)NC(=O)[C@H](CCC(N)=O)NC(=O)[C@H](CC(C)C)NC(=O)[C@H](CC(C)C)NC(=O)[C@H](CCCN)NC(=O)[C@H](CCCNC(=N)N)NC(=O)[C@H](C)NC(=O)[C@H](CO)NC(=O)[C@H](CC(C)C)NC(=O)[C@H](CCC(N)=O)NC(=O)[C@H](CC)NC(=O)[C@H](CC(C)C)NC(=O)[C@@H](NC(=O)[C@H](CCCN)NC(=O)[C@H](CCCNC(=N)N)NC(=O)[C@H](Cc1ccc(O)cc1)NC(=O)[C@H](CO)NC(=O)[C@H](CC(N)=O)NC(=O)[C@@H](NC(=O)[C@H](Cc1ccccc1)NC(=O)[C@@H](NC(=O)[C@H](C)NC(=O)[C@H](CC(=O)O)NC(=O)[C@H](C)NC(=O)CCc1ccc(O)cc1)[C@@H](C)CC)[C@@H](C)O)C(C)C)[C@@H](C)CC)C(=O)N[C@@H](CC(=O)O)C(=O)NCCCCNC(=N)N` [JI-34, reference compound] (Desaminotyrosyl-ADAIFTNSYR[Orn]VL[Abu]QLSAR[Orn]LLQDI[Nle]D-Agmatine; N-terminus and C-terminus assumed) showed a half-maximal inhibitory concentration (IC50) of 1370 pM. Turning to `CCCC[C@H](NC(=O)[C@@H](NC(=O)[C@H](CC(=O)O)NC(=O)[C@H](CCC(N)=O)NC(=O)[C@H](CC(C)C)NC(=O)[C@H](CC(C)C)NC(=O)[C@H](CCCN)NC(=O)[C@H](CCCNC(=N)N)NC(=O)[C@H](C)NC(=O)[C@H](CO)NC(=O)[C@H](CC(C)C)NC(=O)[C@H](CCC(N)=O)NC(=O)[C@H](CC)NC(=O)[C@H](CC(C)C)NC(=O)[C@@H](NC(=O)[C@H](CCCN)NC(=O)[C@H](CCCNC(=N)N)NC(=O)[C@H](Cc1ccc(O)cc1)NC(=O)[C@H](CO)NC(=O)[C@@H](NC(=O)[C@@H](NC(=O)[C@H](Cc1ccccc1)NC(=O)[C@@H](NC(=O)[C@H](C)NC(=O)[C@H](CC(=O)O)NC(=O)[C@H](C)NC(=O)CCc1ccc(O)cc1)[C@@H](C)CC)[C@@H](C)O)[C@@H](C)O)C(C)C)[C@@H](C)CC)C(=O)N[C@@H](CC(=O)O)C(=O)NCCCCNC(=N)N` [JI-36, reference compound] (Desaminotyrosyl-ADAIFTTSYR[Orn]VL[Abu]QLSAR[Orn]LLQDI[Nle]D-Agmatine; N-terminus and C-terminus assumed), the IC50 was found to be 1820 pM.

In the case of `CCCC[C@H](NC(=O)[C@@H](NC(=O)[C@H](CC(=O)O)NC(=O)[C@H](CCC(N)=O)NC(=O)[C@H](CC(C)C)NC(=O)[C@H](CC(C)C)NC(=O)[C@H](CCCN)NC(=O)[C@H](CCCNC(=N)N)NC(=O)[C@H](C)NC(=O)[C@H](CO)NC(=O)[C@H](CC(C)C)NC(=O)[C@H](CCC(N)=O)NC(=O)[C@H](CC)NC(=O)[C@H](CC(C)C)NC(=O)[C@@H](NC(=O)[C@H](CCCN)NC(=O)[C@H](CCCNC(=N)N)NC(=O)[C@H](Cc1ccc(O)cc1)NC(=O)[C@H](CO)NC(=O)[C@H](CCC(N)=O)NC(=O)[C@@H](NC(=O)[C@H](Cc1ccccc1)NC(=O)[C@@H](NC(=O)[C@H](C)NC(=O)[C@H](CC(=O)O)NC(=O)[C@@H](C)NC(=O)CCc1ccc(O)cc1)[C@@H](C)CC)[C@@H](C)O)C(C)C)[C@@H](C)CC)C(=O)N[C@@H](CC(=O)O)C(=O)N[C@@H](CCCNC(=N)N)C(=O)NCCCCCCCC(N)=O` [Peptide P-21304, [Dat^1, D-Ala^2, Gln^8, Orn^12, Abu^15, Orn^21, Nle^27, Asp^28, Amc^30]hGH-RH(1-30)NH2] (Desaminotyrosyl-[dA]DAIFTQSYR[Orn]VL[Abu]QLSAR[Orn]LLQDI[Nle]DR[Aoc]-NH2), the IC50 was determined as 80 pM. Regarding `CCCC[C@H](NC(=O)[C@@H](NC(=O)[C@H](CC(=O)O)NC(=O)[C@H](CCC(N)=O)NC(=O)[C@H](CC(C)C)NC(=O)[C@H](CC(C)C)NC(=O)[C@H](CCCN)NC(=O)[C@H](CCCNC(=N)N)NC(=O)[C@H](C)NC(=O)[C@H](CO)NC(=O)[C@H](CC(C)C)NC(=O)[C@H](CCC(N)=O)NC(=O)[C@H](CC)NC(=O)[C@H](CC(C)C)NC(=O)[C@@H](NC(=O)[C@H](CCCN)NC(=O)[C@H](CCCNC(=N)N)NC(=O)[C@H](Cc1ccc(O)cc1)NC(=O)[C@H](CO)NC(=O)[C@@H](NC(=O)[C@@H](NC(=O)[C@H](Cc1ccccc1)NC(=O)[C@@H](NC(=O)[C@H](C)NC(=O)[C@H](CC(=O)O)NC(=O)[C@@H](C)NC(=O)CCc1ccc(O)cc1)[C@@H](C)CC)[C@@H](C)O)[C@@H](C)O)C(C)C)[C@@H](C)CC)C(=O)N[C@@H](CC(=O)O)C(=O)N[C@@H](CCCNC(=N)N)C(=O)N[C@@H](CCCCNC(=N)N)C(N)=O` [Peptide P-23254, [Dat^1, D-Ala^2, Thr^8, Orn^12, Abu^15, Orn^21, Nle^27, Asp^28, Har^30]hGH-RH(1-30)NH2] (Desaminotyrosyl-[dA]DAIFTTSYR[Orn]VL[Abu]QLSAR[Orn]LLQDI[Nle]DR[hArg]-NH2), the IC50 is 70 pM. `CCCC[C@H](NC(=O)[C@@H](NC(=O)[C@H](CC(=O)O)NC(=O)[C@H](CCC(N)=O)NC(=O)[C@H](CC(C)C)NC(=O)[C@H](CC(C)C)NC(=O)[C@H](CCCN)NC(=O)[C@H](CCCNC(=N)N)NC(=O)[C@H](C)NC(=O)[C@H](CO)NC(=O)[C@H](CC(C)C)NC(=O)[C@H](CCC(N)=O)NC(=O)[C@H](CC)NC(=O)[C@H](CC(C)C)NC(=O)[C@@H](NC(=O)[C@H](CCCN)NC(=O)[C@H](CCCNC(=N)N)NC(=O)[C@H](Cc1ccc(O)cc1)NC(=O)[C@H](CO)NC(=O)[C@H](C)NC(=O)[C@@H](NC(=O)[C@H](Cc1ccccc1)NC(=O)[C@@H](NC(=O)[C@H](C)NC(=O)[C@H](CC(=O)O)NC(=O)[C@@H](C)NC(=O)CCc1ccc(O)cc1)[C@@H](C)CC)[C@@H](C)O)C(C)C)[C@@H](C)CC)C(=O)N[C@@H](CC(=O)O)C(=O)N[C@@H](CCCNC(=N)N)C(=O)N[C@@H](CCCCNC(=N)N)C(N)=O` [Peptide P-23256, [Dat^1, D-Ala^2, Ala^8, Orn^12, Abu^15, Orn^21, Nle^27, Asp^28, Har^30]hGH-RH(1-30)NH2] (Desaminotyrosyl-[dA]DAIFTASYR[Orn]VL[Abu]QLSAR[Orn]LLQDI[Nle]DR[hArg]-NH2) had an IC50 of 40 pM.
